Laboratory results as given in ChEMBL document CHEMBL5442219.

How the values were obtained:
Settings in all cases: Compound concentration 10 µM
[1] = target: T1, Alpha-2A adrenergic receptor (Homo sapiens) (UniProt P08913)
T1 sequence (whole entry): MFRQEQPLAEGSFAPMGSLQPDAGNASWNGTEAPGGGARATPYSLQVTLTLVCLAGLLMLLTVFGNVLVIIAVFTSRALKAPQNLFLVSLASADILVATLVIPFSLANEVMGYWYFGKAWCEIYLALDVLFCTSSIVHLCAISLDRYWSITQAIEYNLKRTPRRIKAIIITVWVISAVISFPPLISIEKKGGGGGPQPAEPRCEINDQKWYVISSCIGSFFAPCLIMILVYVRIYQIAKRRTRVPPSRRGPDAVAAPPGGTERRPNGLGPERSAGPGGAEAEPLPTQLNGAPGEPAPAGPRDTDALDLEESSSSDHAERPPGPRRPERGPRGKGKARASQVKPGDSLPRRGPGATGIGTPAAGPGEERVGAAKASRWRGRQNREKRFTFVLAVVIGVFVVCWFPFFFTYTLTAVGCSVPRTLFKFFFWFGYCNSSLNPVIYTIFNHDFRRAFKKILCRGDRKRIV

[2] = target: T2, Alpha-2C adrenergic receptor (Homo sapiens) (UniProt P18825)
T2 sequence (whole entry): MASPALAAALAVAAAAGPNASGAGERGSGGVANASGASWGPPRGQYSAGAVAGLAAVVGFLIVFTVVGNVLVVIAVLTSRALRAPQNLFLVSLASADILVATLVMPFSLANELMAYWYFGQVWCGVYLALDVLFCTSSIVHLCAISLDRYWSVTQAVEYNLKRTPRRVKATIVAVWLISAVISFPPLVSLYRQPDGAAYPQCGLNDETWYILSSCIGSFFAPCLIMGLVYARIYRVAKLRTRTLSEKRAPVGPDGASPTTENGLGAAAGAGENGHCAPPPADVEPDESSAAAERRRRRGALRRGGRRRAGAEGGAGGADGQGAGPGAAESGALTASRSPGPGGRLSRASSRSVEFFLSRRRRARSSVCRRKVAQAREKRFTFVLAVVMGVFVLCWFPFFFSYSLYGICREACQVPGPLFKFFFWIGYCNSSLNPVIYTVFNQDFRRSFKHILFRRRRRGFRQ

[3] = target: T3, Muscarinic acetylcholine receptor M4 (Homo sapiens) (UniProt P08173)
T3 sequence (whole entry): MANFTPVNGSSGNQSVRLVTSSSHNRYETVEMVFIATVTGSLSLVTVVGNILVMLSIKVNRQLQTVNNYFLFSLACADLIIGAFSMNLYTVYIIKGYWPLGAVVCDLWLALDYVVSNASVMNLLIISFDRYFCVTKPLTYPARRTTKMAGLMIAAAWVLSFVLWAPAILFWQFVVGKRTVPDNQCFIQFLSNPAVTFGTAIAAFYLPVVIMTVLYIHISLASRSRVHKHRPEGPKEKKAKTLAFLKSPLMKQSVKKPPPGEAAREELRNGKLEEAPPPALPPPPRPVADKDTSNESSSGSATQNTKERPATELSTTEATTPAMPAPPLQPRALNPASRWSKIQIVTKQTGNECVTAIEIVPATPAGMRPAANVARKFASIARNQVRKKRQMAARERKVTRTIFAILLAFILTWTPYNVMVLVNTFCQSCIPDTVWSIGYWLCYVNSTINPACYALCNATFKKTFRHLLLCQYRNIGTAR

[4] = target: T4, D(4) dopamine receptor (Homo sapiens) (UniProt P21917)
T4 sequence (whole entry): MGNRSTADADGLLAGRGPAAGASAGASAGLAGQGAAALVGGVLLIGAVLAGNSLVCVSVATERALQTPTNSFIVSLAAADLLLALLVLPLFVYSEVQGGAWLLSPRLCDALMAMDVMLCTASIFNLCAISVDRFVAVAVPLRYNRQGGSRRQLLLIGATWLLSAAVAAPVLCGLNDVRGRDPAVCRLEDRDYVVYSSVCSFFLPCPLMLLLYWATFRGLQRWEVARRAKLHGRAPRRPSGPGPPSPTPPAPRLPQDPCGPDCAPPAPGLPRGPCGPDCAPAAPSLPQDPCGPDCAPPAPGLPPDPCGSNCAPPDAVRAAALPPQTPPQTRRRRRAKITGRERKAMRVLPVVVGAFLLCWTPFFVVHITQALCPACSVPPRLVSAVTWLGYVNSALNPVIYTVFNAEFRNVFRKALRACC

[5] = target: Histamine H1 receptor (Homo sapiens) (UniProt P35367)
[6] = target: Histamine H4 receptor (Homo sapiens) (UniProt Q9H3N8)
[7] = target: T5, 5-hydroxytryptamine receptor 1A (Homo sapiens) (UniProt P08908)
T5 sequence (whole entry): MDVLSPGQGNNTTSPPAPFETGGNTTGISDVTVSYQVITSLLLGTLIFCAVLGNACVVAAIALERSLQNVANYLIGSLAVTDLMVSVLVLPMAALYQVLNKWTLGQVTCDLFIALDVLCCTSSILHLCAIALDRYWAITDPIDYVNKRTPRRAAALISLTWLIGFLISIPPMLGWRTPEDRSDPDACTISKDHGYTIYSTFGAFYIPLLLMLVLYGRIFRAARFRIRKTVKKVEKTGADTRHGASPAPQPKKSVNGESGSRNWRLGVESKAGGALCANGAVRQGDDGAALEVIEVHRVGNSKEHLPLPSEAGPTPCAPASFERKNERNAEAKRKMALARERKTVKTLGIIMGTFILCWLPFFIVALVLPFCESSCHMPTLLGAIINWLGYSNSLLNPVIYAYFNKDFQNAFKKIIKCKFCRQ

[8] = target: 5-hydroxytryptamine receptor 2B (Homo sapiens) (UniProt P41595)
[9] = target: 5-hydroxytryptamine receptor 5A (Homo sapiens) (UniProt P47898)
[10] = target: Beta-3 adrenergic receptor (Homo sapiens) (UniProt P13945)
[11] = target: Beta-1 adrenergic receptor (Homo sapiens) (UniProt P08588)
[12] = target: D(1B) dopamine receptor (Homo sapiens) (UniProt P21918)
[13] = target: 5-hydroxytryptamine receptor 1B (Homo sapiens) (UniProt P28222)
[14] = target: 5-hydroxytryptamine receptor 1D (Homo sapiens) (UniProt P28221)
[15] = target: 5-hydroxytryptamine receptor 7 (Homo sapiens) (UniProt P34969)
[16] = target: Sodium-dependent serotonin transporter (Homo sapiens) (UniProt P31645)
Sequence of Sodium-dependent serotonin transporter (Homo sapiens) (P31645 whole entry, looked up): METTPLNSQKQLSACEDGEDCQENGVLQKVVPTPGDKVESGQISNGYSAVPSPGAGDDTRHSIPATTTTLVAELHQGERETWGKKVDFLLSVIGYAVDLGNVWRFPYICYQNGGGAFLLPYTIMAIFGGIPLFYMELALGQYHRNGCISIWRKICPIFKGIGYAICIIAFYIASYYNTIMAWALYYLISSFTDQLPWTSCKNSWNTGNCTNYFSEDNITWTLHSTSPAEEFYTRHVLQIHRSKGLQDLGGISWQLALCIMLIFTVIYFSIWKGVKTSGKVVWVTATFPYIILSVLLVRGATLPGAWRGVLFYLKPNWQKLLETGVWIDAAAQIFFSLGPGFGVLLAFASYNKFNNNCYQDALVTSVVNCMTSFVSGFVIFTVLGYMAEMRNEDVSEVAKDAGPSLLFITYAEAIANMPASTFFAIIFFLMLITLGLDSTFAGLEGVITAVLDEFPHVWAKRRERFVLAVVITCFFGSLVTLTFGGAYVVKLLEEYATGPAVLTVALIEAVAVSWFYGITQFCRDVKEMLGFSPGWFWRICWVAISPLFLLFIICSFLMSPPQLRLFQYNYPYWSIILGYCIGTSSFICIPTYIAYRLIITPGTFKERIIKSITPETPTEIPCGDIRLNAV

Sequence of 5-hydroxytryptamine receptor 2B (Homo sapiens) (P41595 whole entry): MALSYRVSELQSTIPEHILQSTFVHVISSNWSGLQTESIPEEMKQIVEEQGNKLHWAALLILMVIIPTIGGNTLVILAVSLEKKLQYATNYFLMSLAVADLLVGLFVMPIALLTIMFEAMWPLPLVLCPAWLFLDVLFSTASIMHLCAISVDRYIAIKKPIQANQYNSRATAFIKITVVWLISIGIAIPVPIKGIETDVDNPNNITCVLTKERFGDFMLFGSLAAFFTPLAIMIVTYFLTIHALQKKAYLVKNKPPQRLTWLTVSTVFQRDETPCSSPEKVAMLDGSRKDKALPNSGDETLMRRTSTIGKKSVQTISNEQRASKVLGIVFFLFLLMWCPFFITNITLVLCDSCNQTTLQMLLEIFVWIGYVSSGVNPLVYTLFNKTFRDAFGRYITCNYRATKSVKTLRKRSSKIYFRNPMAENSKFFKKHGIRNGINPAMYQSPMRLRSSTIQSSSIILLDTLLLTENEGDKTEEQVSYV
Sequence of 5-hydroxytryptamine receptor 7 (Homo sapiens) (P34969 whole entry): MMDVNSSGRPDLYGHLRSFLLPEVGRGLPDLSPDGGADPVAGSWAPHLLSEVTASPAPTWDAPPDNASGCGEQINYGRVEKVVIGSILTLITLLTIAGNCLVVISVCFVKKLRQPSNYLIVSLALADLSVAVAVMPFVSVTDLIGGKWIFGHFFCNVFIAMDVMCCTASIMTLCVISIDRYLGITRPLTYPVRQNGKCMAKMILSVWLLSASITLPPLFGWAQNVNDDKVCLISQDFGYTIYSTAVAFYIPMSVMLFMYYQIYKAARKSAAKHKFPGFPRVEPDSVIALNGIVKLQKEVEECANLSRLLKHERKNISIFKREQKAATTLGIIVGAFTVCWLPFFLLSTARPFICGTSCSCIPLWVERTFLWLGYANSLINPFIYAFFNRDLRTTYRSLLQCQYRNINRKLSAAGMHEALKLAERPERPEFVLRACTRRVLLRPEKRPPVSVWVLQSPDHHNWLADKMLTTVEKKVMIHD
Sequence of 5-hydroxytryptamine receptor 1B (Homo sapiens) (P28222 whole entry): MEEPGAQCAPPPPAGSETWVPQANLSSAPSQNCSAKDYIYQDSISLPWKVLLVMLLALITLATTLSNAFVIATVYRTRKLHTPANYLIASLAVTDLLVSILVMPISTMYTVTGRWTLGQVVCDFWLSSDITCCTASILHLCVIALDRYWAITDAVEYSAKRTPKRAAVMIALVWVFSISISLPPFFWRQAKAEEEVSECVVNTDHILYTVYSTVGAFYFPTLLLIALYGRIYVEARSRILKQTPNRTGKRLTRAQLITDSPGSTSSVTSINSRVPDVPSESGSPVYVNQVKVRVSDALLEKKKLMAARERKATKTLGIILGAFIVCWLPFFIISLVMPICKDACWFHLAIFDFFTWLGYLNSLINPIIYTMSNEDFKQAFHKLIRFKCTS
Sequence of 5-hydroxytryptamine receptor 5A (Homo sapiens) (P47898 whole entry): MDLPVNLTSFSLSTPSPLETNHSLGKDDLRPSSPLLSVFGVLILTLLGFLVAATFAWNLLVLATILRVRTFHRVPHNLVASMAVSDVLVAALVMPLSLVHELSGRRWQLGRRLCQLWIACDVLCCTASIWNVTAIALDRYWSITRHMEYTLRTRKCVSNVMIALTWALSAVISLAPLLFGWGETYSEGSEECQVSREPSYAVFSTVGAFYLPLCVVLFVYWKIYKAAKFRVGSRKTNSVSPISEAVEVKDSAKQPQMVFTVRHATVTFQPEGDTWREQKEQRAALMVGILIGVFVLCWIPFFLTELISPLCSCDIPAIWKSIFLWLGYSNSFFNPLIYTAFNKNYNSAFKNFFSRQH
Sequence of Beta-1 adrenergic receptor (Homo sapiens) (P08588 whole entry, looked up): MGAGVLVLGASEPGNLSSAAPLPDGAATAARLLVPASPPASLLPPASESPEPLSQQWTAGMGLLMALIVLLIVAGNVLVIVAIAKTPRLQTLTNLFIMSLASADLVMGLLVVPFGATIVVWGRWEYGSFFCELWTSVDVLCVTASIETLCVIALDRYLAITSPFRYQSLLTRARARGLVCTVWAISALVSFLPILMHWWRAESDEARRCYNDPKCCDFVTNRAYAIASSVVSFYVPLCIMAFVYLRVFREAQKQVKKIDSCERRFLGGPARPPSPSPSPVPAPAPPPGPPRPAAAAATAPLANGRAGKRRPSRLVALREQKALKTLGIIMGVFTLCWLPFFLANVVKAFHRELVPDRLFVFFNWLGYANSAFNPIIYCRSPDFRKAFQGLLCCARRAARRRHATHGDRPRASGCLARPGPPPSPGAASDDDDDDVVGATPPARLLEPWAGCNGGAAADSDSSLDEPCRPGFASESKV
Sequence of Histamine H4 receptor (Homo sapiens) (Q9H3N8 whole entry): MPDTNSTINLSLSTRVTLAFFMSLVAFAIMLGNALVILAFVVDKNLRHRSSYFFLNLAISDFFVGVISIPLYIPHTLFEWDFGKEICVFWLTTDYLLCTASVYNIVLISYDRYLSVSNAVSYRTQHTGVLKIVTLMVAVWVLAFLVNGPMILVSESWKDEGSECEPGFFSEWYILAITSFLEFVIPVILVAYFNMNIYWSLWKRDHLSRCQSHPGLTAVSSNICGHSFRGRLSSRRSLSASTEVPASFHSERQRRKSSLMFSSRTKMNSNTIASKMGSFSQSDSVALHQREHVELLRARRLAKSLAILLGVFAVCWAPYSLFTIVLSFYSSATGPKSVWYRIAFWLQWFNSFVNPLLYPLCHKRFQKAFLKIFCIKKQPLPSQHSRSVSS
Sequence of Histamine H1 receptor (Homo sapiens) (P35367 whole entry): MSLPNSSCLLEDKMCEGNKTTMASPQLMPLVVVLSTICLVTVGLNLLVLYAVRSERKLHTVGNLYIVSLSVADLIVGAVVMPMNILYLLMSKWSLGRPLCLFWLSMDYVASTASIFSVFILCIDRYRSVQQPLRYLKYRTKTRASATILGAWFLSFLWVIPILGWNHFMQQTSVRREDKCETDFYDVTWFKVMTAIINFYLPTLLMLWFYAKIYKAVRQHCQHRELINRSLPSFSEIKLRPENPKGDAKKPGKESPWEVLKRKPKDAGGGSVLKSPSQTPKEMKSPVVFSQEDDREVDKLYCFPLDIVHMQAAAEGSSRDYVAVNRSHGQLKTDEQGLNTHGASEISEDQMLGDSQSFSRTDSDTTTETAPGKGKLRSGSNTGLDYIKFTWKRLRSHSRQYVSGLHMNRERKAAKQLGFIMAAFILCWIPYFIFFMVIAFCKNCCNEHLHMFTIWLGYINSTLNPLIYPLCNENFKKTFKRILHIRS
Sequence of D(1B) dopamine receptor (Homo sapiens) (P21918 whole entry): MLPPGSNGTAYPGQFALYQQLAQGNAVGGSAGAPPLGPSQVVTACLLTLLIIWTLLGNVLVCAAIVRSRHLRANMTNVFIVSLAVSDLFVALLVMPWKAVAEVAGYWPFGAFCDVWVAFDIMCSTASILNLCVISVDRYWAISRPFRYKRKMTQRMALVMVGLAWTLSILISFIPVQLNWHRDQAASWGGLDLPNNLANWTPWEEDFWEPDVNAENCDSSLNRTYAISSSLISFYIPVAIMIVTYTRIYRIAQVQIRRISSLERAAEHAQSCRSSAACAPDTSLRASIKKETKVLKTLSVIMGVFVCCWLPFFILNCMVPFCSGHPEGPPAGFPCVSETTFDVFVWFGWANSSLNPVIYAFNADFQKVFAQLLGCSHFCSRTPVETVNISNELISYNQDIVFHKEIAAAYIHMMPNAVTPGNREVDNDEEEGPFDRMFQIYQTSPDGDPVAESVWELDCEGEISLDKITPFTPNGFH
Sequence of 5-hydroxytryptamine receptor 1D (Homo sapiens) (P28221 whole entry): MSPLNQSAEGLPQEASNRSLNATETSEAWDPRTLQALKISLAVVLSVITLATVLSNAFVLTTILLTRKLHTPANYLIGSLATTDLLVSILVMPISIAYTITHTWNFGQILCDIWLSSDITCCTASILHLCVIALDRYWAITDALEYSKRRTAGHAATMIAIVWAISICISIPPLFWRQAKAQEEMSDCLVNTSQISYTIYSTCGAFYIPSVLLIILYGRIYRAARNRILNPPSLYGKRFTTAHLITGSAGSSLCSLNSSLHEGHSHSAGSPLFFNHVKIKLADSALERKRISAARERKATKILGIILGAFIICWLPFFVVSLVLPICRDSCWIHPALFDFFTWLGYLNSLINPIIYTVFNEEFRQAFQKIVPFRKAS
Sequence of Beta-3 adrenergic receptor (Homo sapiens) (P13945 whole entry, looked up): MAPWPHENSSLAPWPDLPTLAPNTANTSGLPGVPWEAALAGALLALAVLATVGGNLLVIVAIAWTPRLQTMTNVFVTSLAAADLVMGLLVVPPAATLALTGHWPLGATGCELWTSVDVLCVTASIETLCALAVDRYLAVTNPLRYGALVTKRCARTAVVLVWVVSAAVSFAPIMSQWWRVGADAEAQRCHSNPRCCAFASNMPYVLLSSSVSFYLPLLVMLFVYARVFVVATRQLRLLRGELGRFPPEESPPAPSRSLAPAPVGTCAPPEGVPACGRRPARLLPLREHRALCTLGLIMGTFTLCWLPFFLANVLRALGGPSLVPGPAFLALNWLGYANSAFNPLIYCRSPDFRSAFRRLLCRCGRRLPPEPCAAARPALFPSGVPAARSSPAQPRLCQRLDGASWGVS

Structure (SMILES) | inhibition [1] [%] | inhibition [2] [%] | inhibition [3] [%] | inhibition [4] [%] | inhibition [5] [%] | inhibition [6] [%] | inhibition [7] [%] | inhibition [8] [%] | inhibition [9] [%] | inhibition [10] [%] | inhibition [11] [%] | inhibition [12] [%] | inhibition [13] [%] | inhibition [14] [%] | inhibition [15] [%] | inhibition [16] [%]
O=C(Cc1ccccc1)Nc1nc2ccc(Cl)cc2c2nc(-c3ccco3)nn12 | 3.62 | 9.95 | -5.46 | 33.2 | 29.1 | 6.75 | -8.72 | -0.19 | 15.2 | -9.26 | – | – | – | – | – | –
Cc1cc(C)cc(C(=O)N(C)[C@H](Cc2ccc(-c3ccccc3)cc2)C(=O)N[C@@H](Cc2c[nH]c3ccccc23)C(=O)O)c1 | -8.09 | 11.1 | 1 | 11.8 | 15.5 | -4.33 | 15.9 | -6.62 | – | 34.4 | – | – | – | – | – | –
CN1C(=O)[C@@H](NC(=O)c2cc3ccccc3[nH]2)N=C(c2ccccc2)c2ccccc21 | 11.2 | -0.17 | -8 | -8.65 | -6.55 | -4.47 | -1.26 | 78.4 | -2.34 | – | 13.8 | -2.85 | 27.2 | 23.2 | 13.6 | -8.05
NC[C@@H]1O[C@H](C23CC4CC(CC(C4)C2)C3)Cc2c1ccc(O)c2O | 85.1 | 102 | 8.08 | 83.8 | 38.4 | -6.56 | 14.3 | 48.1 | 20.1 | – | -6.91 | 82.7 | 22.6 | 43.5 | 25.1 | 28.7
OC1(c2ccc(Cl)cc2)CCN(Cc2c[nH]c3ccccc23)CC1 | 76.1 | 30.4 | -10 | 66.1 | 38.8 | 13.8 | 2 | 73.8 | 37.7 | – | 38.7 | 40.1 | 19.3 | 46.1 | 10.4 | 102
Cc1nc(C(=O)N2CCC[C@H]2Cc2nnc(-c3ccccc3)o2)c(-c2ccccc2F)s1 | – | -1.4 | 39.1 | -5.22 | 30.3 | -2.37 | 3.86 | 92.6 | 12.1 | 23.9 | – | – | – | – | – | –
Cc1ccccc1C(=O)Nc1ccc(C(=O)N2CCCC(O)c3cc(Cl)ccc32)c(C)c1 (configuration not stated) | 33.8 | 9.34 | -6.02 | 20 | 70.8 | 3.66 | 7.65 | 74.7 | 11.7 | – | 12.2 | 8.81 | 14.4 | 88.5 | 8.44 | 10.7
N#Cc1ccc2[nH]cc(CCCCN3CCN(c4ccc5oc(C(N)=O)cc5c4)CC3)c2c1 | 70 | 76.3 | 5.32 | 80.5 | 85.8 | 24.6 | 102 | 101 | 40.6 | – | 11.6 | 36.9 | 56.1 | 80 | 82.4 | 96
COC(=O)C1=C(C)NC(C)=C(C(=O)OCCCN2CCC(c3ccccc3)(c3ccccc3)CC2)[C@H]1c1cccc([N+](=O)[O-])c1 | 90.1 | 94.8 | 24.8 | 41.5 | 98.8 | 27.4 | 83.7 | 83.2 | 68.7 | – | 31.8 | 51.8 | 89.2 | 75.9 | 84.6 | 85.7
O=C(O)CC/C=C\C[C@@H]1CO[C@H](c2ccccc2Cl)O[C@@H]1c1ccccc1O | – | -7.17 | – | – | 33.4 | – | 16.9 | – | – | 29.5 | – | -4.01 | – | – | – | –
COc1cccc([C@H](O)C2CCN(CCc3ccc(F)cc3)CC2)c1OC | 33.1 | 26.7 | – | 43.9 | 92.9 | 3.4 | 3.32 | 89.1 | 16.8 | – | 32.2 | 4.09 | 27.7 | 73.8 | 34.5 | 27.2
CCCCN1CCC(COC(=O)c2cc(Cl)c(N)c3c2OCCO3)CC1 | 66.1 | 78.8 | 5.81 | 24.9 | 55.4 | -1.37 | -1.01 | 68.3 | -0.67 | – | 10.7 | -0.98 | 35.3 | 54.6 | 40 | 14.6
Cc1nc(-c2ccc(-c3ccc(C(=O)N4CCc5cc6c(cc54)C4(CCN(C)CC4)CO6)cc3)c(C)c2)no1 | 73 | 38 | 23 | 16.6 | 33.8 | 20.5 | 9.17 | 88.9 | 14 | – | -1.95 | 57.1 | 95.1 | 90.9 | 25.5 | 41
